Marks after values point to notes of the source that are not given here.
Assays:
[1] = test system: DMT1-deficient Caco-2 monolayers; experiment: 55Fe immunoprecipitation of ferritin in Caco-2 monolayers; type: cell-based, Human; conditions: apical hinokitiol 500 nM
Experimental: Immunoprecipitation of ferritin was performed using human anti-FTL1 (Santa Cruz sc-74513) and Protein G PLUS-Agarose beads (Santa Cruz sc-2002). […] Cell lysate was incubated with primary antibody (1:100 dilution) at room temperature for 1 hour, then with the secondary antibody (1:10 dilution) at room temperature for 1 hour with constant mixing. Repeated centrifugations and PBS rinses were performed, and the radioactive levels in the agarose pellet were determined by dilution in scintillation fluid.

[2] = Electrochemical studies (cyclic voltammetry) of iron:chelator complexes; type: physicochemical
Experimental: Potentiostatic electrochemical methods were performed on a CH Instruments electrochemical workstation (model 760 C, Austin, TX) on a three-electrode cell. Hg working electrodes were fabricated by the electrodeposition of Hg on a Pt wire utilizing the procedure previously described by Barton et al. (70). All experiments were reported versus a Ag/AgCl reference electrode and utilized a graphite auxiliary electrode. The electrolyte was sparged with UHP argon before measurements. A positive pressure of argon was maintained throughout the experiments.
Unless otherwise indicated, experiments used a 0.1 M Tris buffer in H2O or 1:1 MeOH:H2O at pH=7.2 using HNO3 and KOH as titrant. Unless otherwise indicated, experiments used a 100 mV/s scan rate, 100 μM Fe(NO3)3, and 500 μM small molecule. All redox potentials are recorded versus a normal hydrogen electrode (NHE).
The estimated redox potential of Fe(Hino)n was determined through extrapolation of the best-fit line of the determined redox potentials of Fe(Hino)n as a function of the concentration of MeOH in the 0.1 M Tris buffer at pH=7.2.

[3] = test system: mice injected with turpentine oil (TO); experiment: Acute anemia of inflammation model, turpentine oil injection; type: in vivo; conditions: once daily for 3 days, 16 h post-injection
Experimental: FIGS. 27A-27E show hinokitiol efficacy in a model of acute anemia of inflammation (Al). Mice (male; C57BL/6; 7-week-old; n=8-10) were administered turpentine oil (TO) (5 mL/kg) or saline, and euthanized 3, 6, 12, 16, 24 h post injection. (A) Hepcidin mRNA measured by qPCR. (B) Proteins quantified by Western blot analysis. (C) Tissue and serum non-heme iron measured by bathophenanthroline colorimetric assay. (D) Hematocrit measured by centrifugation of heparinized capillaries. (E) Mice given compounds indicated once daily for 3 days. On the third day, mice injected with saline or TO, and euthanized 16 h post-injection.
Injection of turpentine oil (TO) is a common method to induce inflammation in mice. […] As a result, iron buildup occurred in the duodenum and spleen. Moreover, serum iron decreased (FIG. 27C) without affecting hematocrit values (FIG. 27D).

[4] = Iron (III) binding affinity, EDTA or citrate competition assay; conditions: for KA for iron (III): EDTA competition (citrate for maltol), pH 7.0
Experimental: Specifically, the association constant for iron (II) was determined by a ferrozine competition assay (KA of ferrozine=3.65×10^15) (60). FeCl2 (25 μM) was pre-mixed with ferrozine (75 μM) in a 25 mM MES/Tris buffer at pH=7.0 containing 62.5 mM sodium ascorbate. Then increasing concentrations of small molecule (from 40X stocks in DMSO) were added to the indicated final concentrations. The solutions were allowed to equilibrate for 24 hours before reading of the absorbance at 562 nm. […] The system was allowed to equilibrate overnight, and the absorbance corresponding to the Fe(chelator)3 complex was determined. The EC50 values for each chelator were calculated by a nonlinear curve fit (Hill1) on OriginPro by plotting the absorbance vs. concentration of titrant, and the KA for each complex was determined from the equation: KA, ligand=(KA, competitor*[EC50])/[ligand] where the ligand is the molecule originally bound to iron, and the competitor is the competing chelator.

ferritin = molecular target: T1, ferritin (Homo sapiens, UniProt P02792+P02794); experiment: Removal of 55Fe from ferritin; type: biochemical; conditions: buffered solution, 2.5 ng ferritin/mL
T1 construct: endogenous in cells; host or cells: wild type Caco-2 monolayers (human, ATCC HTB-37); immunoprecipitated with anti-FTL1 on Protein G PLUS-Agarose beads
Experimental: The immunoprecipitated ferritin was diluted to 2.5 ng ferritin/mL (determined by ELISA as described below) in 50 mM MES/Tris buffer at pH=7.0, and increasing concentrations of hinokitiol were added (from 1000X stock in DMSO) to give the final indicated concentrations. The suspension was mixed at room temperature for 2 hours.

shDMT1 Caco-2 monolayers = experiment: Iron-related protein and mRNA levels in shDMT1 Caco-2 monolayers; type: cell-based, Human; conditions: hinokitiol up to 5 μM, 25 μM FeCl3, 4 hours
Experimental: The threshold cycle values were normalized to internal control actin using primers against Fpn1 (Origene HB210988) and Fth1 (Origene HP205786) using the Pfaff1 Method and were then normalized to shDMT1 levels in the absence of hinokitiol. Caco-2 monolayers, differentiated MEL cells, or J774 cells underwent treatment as described in rescue experiments before lysis with RIPA buffer (Thermo 89901) containing protease inhibitors (Thermo 88266). Protein concentrations were determined by a BCA kit (Thermo 23225) and diluted to 2 mg/mL in the same RIPA buffer. […] Blots were thoroughly rinsed with TBST and imaged after addition of Femto Chemluminescence solution according to manufacturer instructions (Thermo Fisher 34095). For results found in FIG. 19E, protein lysate was isolated after treatment with 500 nM FeCl3 as described below. For results found in FIG. 22A, Caco-2 monolayers were treated with 25 μM FeCl3 and 0, 0.5, 1, 3, 5, 10, 25, or 50 μM hinokitiol as described below. […] Experiments for the translational and transcriptional regulated changes in endogenous proteins upon addition of increasing hinokitiol concentrations (FIG. 5F-J, FIG. 21, and FIG. 22A-L) used 25 μM of non-radioactive FeCl3 and the indicated concentration of hinokitiol (from a 1000X stock in DMSO).

[5] = test system: FPN1-deficient Caco-2 monolayers; experiment: 55Fe uptake and transport in FPN1-deficient Caco-2 monolayers; type: cell-based, Human; conditions: 1 μM
Experimental: To knockdown FPN1 levels in wild type Caco-2 cells, the differentiated epithelial monolayers were incubated with 150 μM quercetin (Sigma 337951) for 18 hours in Caco-2 Complete media containing G418 similar to previously described (40). To knockdown FPN1 levels in shControl and shDMT1 Caco-2 monolayers, incubation was performed as above except with 250 μM quercetin. After completion of the incubation, the apical and basolateral fluid was aspirated and rinsed with PBS before ^55Fe transport and uptake were determined as described above.

T1 sequence (P02792 2-175 limits assumed): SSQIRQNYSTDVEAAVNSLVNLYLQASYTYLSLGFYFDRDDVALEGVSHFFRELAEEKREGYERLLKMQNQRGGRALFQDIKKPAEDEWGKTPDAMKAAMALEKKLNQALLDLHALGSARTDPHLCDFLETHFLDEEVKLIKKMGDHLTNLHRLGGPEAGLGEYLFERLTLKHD
T1 sequence (P02794 whole entry): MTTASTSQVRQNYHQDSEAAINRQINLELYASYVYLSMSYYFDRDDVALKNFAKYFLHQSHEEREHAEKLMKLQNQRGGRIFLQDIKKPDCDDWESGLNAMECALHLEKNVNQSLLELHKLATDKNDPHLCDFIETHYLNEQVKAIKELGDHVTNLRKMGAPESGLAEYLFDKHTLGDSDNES

## CC(C)c1cccc(=O)c(O)c1 [hinokitiol]
[1]
  55Fe incorporation into ferritin: allows for ^55Fe incorporation into ferritin
[2]; Table 2, 0.1 M Tris, pH 7.2
  E^0 1:1 MeOH:H2O: −211 mV vs. N.H.E.
[2]; extrapolation of E^01 vs. MeOH concentration
  E^0 Aqueous, estimated from MeOH standard curve: −361^¶ mV vs. N.H.E.
[3]
  hypoferremia induced by TO injection: mitigated
[4]
  KA for iron (III): 5.8×10^25
[4]; listed as Hinokitiol
  KA for iron (III): 5.8 × 10^25
[4]; estimated from known pFe of EDTA (citrate for maltol)
  pFe^III: 23.7^†
ferritin
  excess of hinokitiol relative to ferritin needed to remove iron: > 1,000,000 fold
shDMT1 Caco-2 monolayers
  Fpn1 mRNA and protein levels: decreased
  Hif1α and Hif2α levels: similarly decreased
  IRP2 protein levels: decreased
  TfR1 (3′-IRE) protein levels: decreased
  ferritin subunits (5′-IREs) protein levels: increased
[5]
  iron uptake: without affecting iron uptake
  monolayer integrity (TEER): nor disrupting monolayer integrity
  transepithelial iron transport: restored transepithelial iron transport
